# Ends that are not written are not given here.
# Tests used:
# [1] = system: Human-derived Periodontal Ligament Cells (PDL Cells); test: Cell growth of PDL cells (cell number by Coulter counter); assay type: cell-based; settings: peptide added at various concentrations to DMEM containing 2% FBS; counted on Days 4 and 6; versus control medium (FIG. 1, FIG. 2)
# Description: PDL cells were isolated from a healthy premolar carefully extracted from a patient who visited a hospital to extract teeth for orthodontic treatment so that periodontal ligament should not be damaged as far as possible, and cultured. The extracted tooth was washed with sterilized physiological saline and phosphate-buffered saline (PBS, Nissui), and then periodontal ligament existing in ⅓ of the tooth root at the center was scraped off with a sharp knife. The pieces of periodontal ligament were transferred to a plastic plate and minced into small fragments using a round-blade knife. Tissue fragments were left standing in a plate having a diameter of 35 mm (FALCON) and cultured in Dulbecco's modified Eagle medium (DMEM, Nissui) containing antibiotics (100 U/ml of penicillin G, 100 μg/ml of streptomycin and 250 μg/ml of gentamicin) and 10% fetal bovine serum (FBS, EQUITECH-BIO) at 37° C. under 5% CO2. […]
# The PDL cells prepared in (1) were inoculated on a 24-well culture plate (FALCON) at a ratio of 5×10^3 cells/well. […] On Days 4 and 6, the cells were separated and dispersed by using PBS containing 0.08% trypsin and 0.04% ethylenediaminetetraacetic acid (EDTA), and cell number was counted by using a Coulter counter (COULTER Z1, Coulter Electronics). […]
# PDL cells = test: Calcification product forming ability of PDL cells (Dahl's calcium staining, alizarin red S); assay type: cell-based, human; settings: peptide at various concentrations, 10 mM sodium β-glycerophosphate, three weeks after confluent state
# Procedure: The following experiment was performed to examine effect of the peptide on calcification product forming ability of cells.
# To assess calcification ability of cells, Dahl's calcium staining was performed. The PDL cells were inoculated on a 24-well culture plate at a ratio of 5×10^3 cells/well, and cultured in 2S-containing DMEM added with the peptide (a) or (c) at various concentrations and adjusted by addition of 10 mM sodium β-glycerophosphate. Three weeks after the cells reached a confluent state, the cells were washed with PBS, fixed with neutrally buffered formalin and stained with alizarin red S (Wako Pure Chemical Industries).
# MC3T3 cells = test: Calcification product forming ability of MC3T3 cells (Dahl's calcium staining); assay type: cell-based, mouse; settings: two weeks after confluent state
# Procedure: To assess calcification ability of cells, Dahl's calcium staining was performed. The PDL cells were inoculated on a 24-well culture plate at a ratio of 5×10^3 cells/well, and cultured in 2S-containing DMEM added with the peptide (a) or (c) at various concentrations and adjusted by addition of 10 mM sodium β-glycerophosphate. […]
# Further, the peptide (a), BMP2 and TGFβ were similarly examined by using the MC3T3 cells.
# [2] = system: periodontal disease model; test: Periodontal disease model (histology of defect at first molar of the upper jaw); assay type: in vivo, Wistar rats; settings: one month after operation
# Procedure: The following experiment was performed in order to examine action of the peptide of the present invention on a periodontal disease model. • (i) Preparation of Periodontal Disease Model 8-week old Wistar rats were systemically anesthetized with an ethyl carbamate solution in a volume of 0.5 ml per 100 g of body weight, and then the mesial gingiva of each first molar on the upper jaw was vertically incised. The gingival periosteal flap was reflected to expose the mesial alveolar bone of the first molar. Then, a defect having a length of about 2 mm and a buccolingual diameter of about 1 mm was formed from the alveolar bone crest of the same site towards the root apex side by using a fissure bur under pouring saline to expose the mesial root face of the first molar on the upper jaw. The root cementum and surface of dentin was removed together with the periodontal ligament attached to the exposed root face so as to make a shallow cavity. • (ii) Test Method At the aforementioned defect, a sample prepared with 1% PBS solution of sodium hyaluronate (weight average molecular weight: 900,000) was applied on the exposed root face, and the gingival periosteal flap was repositioned and sutured. By using a group of the animals applied with 1% PBS solution of sodium hyaluronate containing the peptide (a) (concentration of the peptide (a): 0.3 mg/ml) as the peptide group, a group of the animals applied with 1% PBS solution of sodium hyaluronate alone as the hyaluronic acid group, and a group of the animals applied with no substance before suture of the gingival periosteal flap for restoration as the control group, healing conditions were compared one month after the operation. The animals were euthanized with chloroform, and each experimental site was excised. The excised upper jaw bone was fixed by immersion in neutrally buffered formalin for 1 day and then decalcified over 2 days by using a rapid decalcifying solution (K-CX). The specimen was embedded in paraffin in a conventional manner, then a mesiodistal section having a thickness of […] and parallel to the longitudinal axis of the tooth root was prepared at the experiment site and stained with hematoxylin/eosin. Adhesion condition of periodontal tissue to the exposed surface of the tooth root at the defective site and the position of the apex of the alveolar bone were evaluated light microscopically. • (iii) Results (Findings)
# [3] = peptide (a) 0.3 mg/ml in 1% PBS solution of sodium hyaluronate
sequence,measurement,setting,value
VPAFPRQPGTPGVASL [Peptide (a)],PDL cell number (cell growth promoting effect),[1],significantly increased
same,calcification ability of the PDL cells,PDL cells,significantly increased
same,cell differentiation promoting effect (calcification) on MC3T3 cells,MC3T3 cells,significant cell differentiation promoting effect
same,cell differentiation promoting effect (calcification) on MC3T3 cells relative to BMP2,MC3T3 cells; comparison with BMP2,comparable to or higher than that of BMP2
same,down-growth of the epithelium,"[2]; peptide (a) 0.3 mg/ml in 1% PBS solution of sodium hyaluronate applied on exposed root face, versus control and hyaluronic acid groups",observed to a less extent
same,deposition of cementum with Sharpey's fibers on the exposed root surface,[2]; [3],"deposition of cementum with Sharpey's fibers, that is, new connective tissue attachment formation, was observed"
same,separation between the gingiva and the tooth root,[2]; [3],no such separation was observed
same,bone regeneration at the periodontal defect,"[2]; peptide (a) 0.3 mg/ml in 1% PBS solution of sodium hyaluronate, versus control and hyaluronic acid groups",more active than in the other two groups

# Source: patent US7678884B2, “Biologically active peptide and agent containing the same” (Seikagaku Corporation, priority 2003, dated 2010)
